Assay results reported in ChEMBL document CHEMBL1201862, “PubChem BioAssay data set” (2004).
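Compound exposure: 48 hours, 5 concentrations, 96-well plates. GI50: concentration for 50% inhibition of growth.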 The source made the active and inactive calls. Rule as the data show it: active = GI50 up to about 1.1 µM and inactive = higher.

Assays:
Assay in all cases: inhibition of tumour cell growth, NCI panel, 48 h
U-251 = test system: U-251
HCC 2998 = test system: HCC 2998
SK-MEL-5 = test system: SK-MEL-5
ACHN = test system: ACHN
HL-60 = test system: HL-60
OVCAR-5 = test system: OVCAR-5
SF-268 = test system: SF-268
M14 = test system: M14
HT-29 = test system: HT-29
TK-10 = test system: TK-10
LOX IMVI = test system: LOX IMVI
NCI/ADR-RES = test system: NCI/ADR-RES
UACC-62 = test system: UACC-62
SK-MEL-28 = test system: SK-MEL-28
HCT-15 = test system: HCT-15
COLO 205 = test system: COLO 205
SK-MEL-2 = test system: SK-MEL-2
MOLT-4 = test system: MOLT-4
SF-539 = test system: SF-539
NCI-H226 = test system: NCI-H226

## CC1=C(SCCO)C(=O)c2ccccc2C1=O
U-251
  GI50: 13.3 µM (inactive)
HCC 2998
  GI50: 16.6 µM (inactive)
SK-MEL-5
  GI50: 13.3 µM (inactive)
ACHN
  GI50: 3.52 µM (inactive)
HL-60
  GI50: 0.55 µM (active)
OVCAR-5
  GI50: 17.9 µM (inactive)
SF-268
  GI50: 15.5 µM (inactive)
M14
  GI50: 14.3 µM (inactive)
HT-29
  GI50: 19.3 µM (inactive)
TK-10
  GI50: 16.8 µM (inactive)
LOX IMVI
  GI50: 12.1 µM (inactive)
NCI/ADR-RES
  GI50: 14.3 µM (inactive)
UACC-62
  GI50: 14.9 µM (inactive)
SK-MEL-28
  GI50: 11 µM (inactive)
HCT-15
  GI50: 7.35 µM
COLO 205
  GI50: 11.1 µM (inactive)
SK-MEL-2
  GI50: 11.7 µM (inactive)
MOLT-4
  GI50: 0.324 µM (active)
SF-539
  GI50: 12.1 µM (inactive)
NCI-H226
  GI50: 14.7 µM (inactive)

## N#C/C(=C\c1ccc(Cl)cc1)c1nc2ccccc2c(=O)[nH]1
U-251
  GI50: 52.5 µM (inactive)
HCC 2998
  GI50: > 100 µM (inactive)
SK-MEL-5
  GI50: > 100 µM (inactive)
ACHN
  GI50: 65.8 µM (inactive)
HL-60
  GI50: > 100 µM (inactive)
OVCAR-5
  GI50: > 100 µM (inactive)
SF-268
  GI50: 51.6 µM (inactive)
M14
  GI50: > 100 µM (inactive)
HT-29
  GI50: > 100 µM (inactive)
TK-10
  GI50: 76 µM (inactive)
LOX IMVI
  GI50: > 100 µM (inactive)
NCI/ADR-RES
  GI50: > 100 µM (inactive)
UACC-62
  GI50: 43.7 µM (inactive)
SK-MEL-28
  GI50: > 100 µM (inactive)
HCT-15
  GI50: > 100 µM
COLO 205
  GI50: > 100 µM (inactive)
SK-MEL-2
  GI50: > 100 µM (inactive)
MOLT-4
  GI50: > 100 µM (inactive)
SF-539
  GI50: > 100 µM (inactive)
NCI-H226
  GI50: > 100 µM (inactive)
